SMILES strings stand for the structures. pIC50: −log10 of the molar value.

The target in this assay is T1, Gag-Pol polyprotein [588-1027]/[588-1147] (Human immunodeficiency virus 1, UniProt P04585).
T1 construct: 588-1027; 588-1147
Description: HIV-1 RT Assay. To be noted: pH 7.9. From the text: The IC50 of reverse transcriptase is the concentration that inhibits 50% of recombinant HIV-1 RT RNA-directed DNA polymerase activity in vitro.
For the molecule `CCOC(=O)N1CCC(=C(c2cc(Cl)c(O)c(C(=O)O)c2)c2cc(Cl)c(O)c(C(=O)O)c2)CC1` [5-[(3-carboxy-5-chloro-4-hydroxyphenyl)[1-(ethoxycarbonyl)piperidin-4-ylidene]methyl]-3-chloro-2-hydroxybenzoic acid], the pIC50 was under 4.00. `CCOC(=O)N1CCC(=C(c2cc(Cl)c(OC)c(C(=O)O)c2)c2cc(Cl)c(OC)c(C(=O)O)c2)CC1` [Ethyl 4-(3,3-dicarboxy-5,5-dichloro-4,4-dimethoxydiphenylmethylene)piperidinecarboxylate] had a pIC50 of under 4.00. `CCOC(=O)N1CCC(=C(c2cc(Cl)c(OC)c(C(=O)OC)c2)c2cc(Cl)c(OC)c(C(=O)OC)c2)CC1` [Ethyl 4-(3,3-dichloro-4,4-dimethoxy-5,5-di(methoxycarbonyl)-diphenylmethylene)piperidinecarboxylate] had a pIC50 of under 4.00. Take `COC(=O)N1CCC(=C(c2cc(Cl)c(OC)c(C(=O)O)c2)c2cc(Cl)c(OC)c(C(=O)O)c2)CC1` [Methyl 4-(3,3-dicarboxy-5,5-dichloro-4,4-dimethoxydiphenylmethylene)piperidinecarboxylate]: the pIC50 is under 4.00. Under `COC(=O)N1CCC(=C2c3ccccc3CCc3ccccc32)CC1` [methyl 4-{tricyclo[9.4.0.0^{3,8}]pentadeca-1(11),3,5,7,12,14-hexaen-2-ylidene}piperidine-1-carboxylate] stands under 4.00; under `CCOC(=O)N1CCC(=C(c2cc(Cl)c3c(c2)C(=O)OC(C)(C)O3)c2cc(Cl)c3c(c2)C(=O)OC(C)(C)O3)CC1` [ethyl 4-[bis(8-chloro-2,2-dimethyl-4-oxo-2,4-dihydro-1,3-benzodioxin-6-yl)methylidene]piperidine-1-carboxylate], under 4.00; under `CCOC(=O)N1CCC(C(c2cc(C)c(OC)c(C(=O)OC)c2)c2cc(C)c(OC)c(C(=O)OC)c2)CC1` [Ethyl 4 - (4,4 - dimethoxy - 3,3 - di(methoxycarbonyl)-5,5-dimethyl-diphenylmethyl)piperidinecarboxylate], under 4.00. `COC(=O)CCCC(=O)N1CCC(=C(c2cc(C)c(OC)c(C(=O)OC)c2)c2cc(C)c(OC)c(C(=O)OC)c2)CC1` [Methyl 5-[4-{4,4-dimethoxy-4,4-bis(methoxycarbonyl)-5,5-(dimethyl)diphenylmethylene}piperidyl]-5-oxopentanoate] showed a negative-log IC50 (pIC50) of under 4.00. As for `COC(=O)c1cc(C(=C2CCN(C(=O)OC)CC2)c2cc(Cl)c(OC)c(C(=O)OC)c2)cc(Cl)c1OC` [methyl 4-{bis[3-chloro-4-methoxy-5-(methoxycarbonyl)phenyl]methylidene}piperidine-1-carboxylate], the pIC50 is under 4.00. Consider `COC(=O)c1cc(C(=C2CCN(C(=O)OC)CC2)c2cc(C)c(OC)c(C(=O)OC)c2)cc(C)c1OC` [Methyl 4-(4,4-dimethoxy-3,3 - di(methoxycarbonyl) -5,5 - dimethyl - diphenylmethylene)piperidinecarboxylate], for which the pIC50 was under 4.00. The molecule `COC(=O)CCCC(=O)N1CCC(=C(c2cc(Cl)c(OC)c(C(=O)OC)c2)c2cc(Cl)c(OC)c(C(=O)OC)c2)CC1` [Methyl 5-[4-{3,3-dichloro-4,4-dimethoxy-5,5-di(methoxycarbonyl)diphenylmethylene}piperidyl]-5-oxopentanoate] showed a pIC50 of under 4.00. Under `COC(=O)c1cc(C(c2cc(C)c(OC)c(C(=O)OC)c2)C2CCN(C(=O)OC)CC2)cc(C)c1OC` [Methyl 4 - (4,4 - dimethoxy - 3,3 - di(methoxycarbonyl)-5,5-dimethyl-diphenylmethyl)piperidinecarboxylate] stands under 4.00.

`COC(=O)N1CCC(=C2c3ccccc3C=Cc3ccccc32)CC1` [methyl 4-{tricyclo[9.4.0.0^{3,8}]pentadeca-1(11),3,5,7,9,12,14-heptaen-2-ylidene}piperidine-1-carboxylate] showed a negative logarithm of the IC50 (pIC50) of under 4.00. With `CCOC(=O)N1CCC(=C(c2cc(C)c(OC)c(C(=O)OC)c2)c2cc(C)c(OC)c(C(=O)OC)c2)CC1` [ethyl 4-{bis[4-methoxy-3-(methoxycarbonyl)-5-methylphenyl]methylidene}piperidine-1-carboxylate], the pIC50 was under 4.00.
